# Test results taken from publication PMC3677654, “Soy Glycinin Contains a Functional Inhibitory Sequence against Muscle-Atrophy-Associated Ubiquitin Ligase Cbl-b” (International Journal of Endocrinology, 2013).
# “Also recorded” adds a separate entry of the source.
# Tests used:
# [1] = tested on: Cbl-b-mediated ubiquitination of IRS-1; test: Cbl-b-mediated IRS-1 ubiquitination in transfected HEK293 cells; assay type: cell-based, human Cbl-b, rat IRS-1; conditions: 120 μM, 10 ng/mL IGF-1 for 1 h, 100 nM epoxomicin, immunoblot
# Protocol: HEK293 cells were maintained in Dulbecco's modified Eagle medium (DMEM) containing 10% fetal bovine serum, 100 U/mL penicillin, and 100 μg/mL streptomycin at 37°C under 5% CO2-[…] gas mixture.
# (§1) HEK293 cells (40–60% of confluence) were transfected with plasmid vectors, using Hily Max lipofection reagent (DOJINDO, Kumamoto, Japan), as described previously. The expression plasmids used in this study were pCEFL-human Cbl-b-HA, pcDNA3.1-rat IRS-1-V5, and pcDNA3-FLAG-Ubiquitin.
# (§2) Immunoblot and immunoprecipitation analyses were performed as described previously. The following antibodies were used: anti-actin (Calbiochem, La Jolla, CA, USA), anti-HA.11 (BabCo, Richmond, CA, USA), anti-V5 (Invitrogen, Carlsbad, CA, USA), anti-FLAG M2 (Sigma, St. Louis, MO, USA), anti-IRS-1 (Upstate Biotechnology, Lake Placid, NY, USA), anti-Akt-1 (PharMingen International, Tokyo), and anti-phospho-S^473-Akt-1 (Cell Signaling Technology, Beverly, MA, USA).
# We used the following pentapeptides or hexapeptides derived from soy: soy-glycinin-derived peptide, soy-β-conglycinin-derived peptide, lipoprotein- (LP-) derived peptide, and soy protein isolate (SPI). These peptides were kindly provided by Fuji Oil Co. (Osaka, Japan). […] A patent application was lodged for the sequence of this peptide (Pat. no. 5113346). […] These peptides were kindly provided by Otsuka Pharmaceutical Co. (Tokushima, Japan). […]
# [2] = tested on: interaction between Cbl-b and IRS-1; test: Interaction between Cbl-b and IRS-1 in HEK293 cells (co-immunoprecipitation); assay type: cell-based, human Cbl-b, rat IRS-1; conditions: 120 μM, anti-IRS-1 immunoprecipitates
# Protocol: as §1, §2
# Figure 3 Inhibitory effect of Cblin-like synthetic peptide on Cbl-b-mediated degradation and ubiquitination of IRS-1. HEK293 cells were transfected with mock vector/pCEFL-Cbl-b-HA, pcDNA3.1-rat IRS-1-V5, and pcDNA3-FLAG-Ubiquitin and then treated with 100 nM epoxomicin at 2 hours before treatment with each peptide at the indicated concentrations. One hour later, these cells were treated with 10 ng/mL IGF-1 for 1 hour. Immunoprecipitates (IP) from whole cell lysates incubated with an anti-IRS-1 antibody were subjected to immunoblot (IB) analysis for the indicated proteins. […]
# [3] = tested on: Cbl-b-mediated ubiquitination of IRS-1; conditions: ref [4], cited from earlier work; for Inhibitory activity on Cbl-b-mediated IRS-1 ubiquitination: in words
# From the text: These peptides were kindly provided by Fuji Oil Co. (Osaka, Japan). […] A patent application was lodged for the sequence of this peptide (Pat. no. 5113346).
# [4] = tested on: denervated skeletal muscle of mice; conditions: ref [4], cited from earlier work
# From the text: Therefore, we hypothesized that foodstuffs that contain Cblin-like amino acid sequence can be used to prevent unloading-induced muscle atrophy.
Substance,Inhibition of IRS-1 ubiquitination [1],Inhibition of interaction between Cbl-b and IRS-1 [2],IC50 ([3]; approximate) [µM],Inhibitory activity on Cbl-b-mediated IRS-1 ubiquitination [3],Prevention of denervation-induced muscle atrophy ([4]; mice),Expression of MAFbx/atrogin-1 [4]
DGpYMP [Cblin],inhibited IRS-1 ubiquitination,inhibited IRS-1 ubiquitination and interaction between Cbl-b and IRS-1,~120,exhibited inhibitory activity on Cbl-b-mediated IRS-1 ubiquitination; also recorded: inhibited Cbl-b-mediated ubiquitination and degradation of IRS-1 both in vitro and in vivo,"inhibited Cbl-b-mediated degradation of IRS-1, resulting in suppression of denervation-mediated muscle atrophy; also recorded: prevented denervation-induced muscle atrophy in mice",inhibited Cbl-b-mediated IRS-1 ubiquitination and expression of MAFbx/atrogin-1
VGpYLR,,,,no inhibitory activity against Cbl-b-mediated IRS-1 ubiquitination,,
